Experimental findings from patent publication US20260240847A1, “COMPOUNDS WITH ANTI-TUMOR ACTIVITY AGAINST CANCER CELLS BEARING TYROSINE KINASE INHIBITOR RESISTANT EGFR MUTATIONS” (BOARD OF REGENTS, THE UNIVERSITY OF TEXAS SYSTEM, priority 2019, published 2026) are described below.

SMILES strings stand for the structures.

What all share (assay): Ba/F3 cell viability, Cell Titer Glo
One test deals with EGFR R776C (Homo sapiens, UniProt P00533, R776C). Conditions: read-out: IC50 Values; Ba/F3 cells expressing EGFR R776C, 72 hours.
The next test concerns the target EGFR S768dupSVD (Homo sapiens, UniProt P00533, DUP768-770). The following applies: read-out: IC50 Values; Ba/F3 cells expressing EGFR S768dupSVD, 72 hours.
Another test deals with EGFR R776H (Homo sapiens, UniProt P00533, R776H). The following applies: read-out: IC50 Values; Ba/F3 cells expressing EGFR R776H, 72 hours.
Another test addresses EGFR L858R T790M/C797S (Homo sapiens, UniProt P00533, C797S/L858R/T790M). Conditions: read-out: IC50 Values; Ba/F3 cells expressing EGFR L858R T790M/C797S, 72 hours.
For another test, the target named is EGFR L747P (Homo sapiens, UniProt P00533, L747P). The following applies: read-out: IC50 Values; Ba/F3 cells expressing EGFR L747P, 72 hours.
The target of another test is EGFR S768I (Homo sapiens, UniProt P00533, S768I). Conditions: read-out: IC50 Values; Ba/F3 cells expressing EGFR S768I, 72 hours.
The next test concerns the target EGFR S768I/V769L (Homo sapiens, UniProt P00533, S768I/V769L). The following applies: read-out: IC50 Values; Ba/F3 cells expressing EGFR S768I/V769L, 72 hours.
The target in the next test is EGFR T790M (Homo sapiens, UniProt P00533, T790M). The following applies: read-out: IC50 Values; Ba/F3 cells expressing EGFR T790M, 72 hours.
A further test concerns the target EGFR E709K L858R (Homo sapiens, UniProt P00533, E709K/L858R). Conditions: read-out: IC50 Values; Ba/F3 cells expressing EGFR E709K L858R, 72 hours.
Another test deals with EGFR Ex19del G724S (Homo sapiens, UniProt P00533, DEL746-750/G724S). The following applies: read-out: IC50 Values; Ba/F3 cells expressing EGFR Ex19del G724S, 72 hours.
In the next test the target is EGFR Ex19del/T790M/L792H (Homo sapiens, UniProt P00533, DEL746-750/L792H/T790M). The following applies: read-out: IC50 Values; Ba/F3 cells expressing EGFR Ex19del/T790M/L792H, 72 hours.
The target in another test is EGFR L858R/T790M (Homo sapiens, UniProt P00533, L858R/T790M). The following applies: read-out: IC50 Values; Ba/F3 cells expressing EGFR L858R/T790M, 72 hours.
The next test deals with EGFR L858R/L718V (Homo sapiens, UniProt P00533, L718V/L858R). The following applies: read-out: IC50 Values; Ba/F3 cells expressing EGFR L858R/L718V, 72 hours.
Another test deals with EGFR Ex19del L718V (Homo sapiens, UniProt P00533, DEL746-750/L718V). Conditions: read-out: IC50 Values; Ba/F3 cells expressing EGFR Ex19del L718V, 72 hours.
For a further test, the target named is EGFR K757R (Homo sapiens, UniProt P00533, K757R). The following applies: read-out: IC50 Values; Ba/F3 cells expressing EGFR K757R, 72 hours.
A further test addresses EGFR Ex19delT854l (Homo sapiens, UniProt P00533, DEL746-750/T854I). Conditions: read-out: IC50 Values; Ba/F3 cells expressing EGFR Ex19delT854l, 72 hours.
The next test concerns the target EGFR L858R T790M V843I (Homo sapiens, UniProt P00533, L858R/T790M/V843I). Conditions: read-out: IC50 Values; Ba/F3 cells expressing EGFR L858R T790M V843I, 72 hours.
For the next test, the target named is EGFR Ex19del L718Q (Homo sapiens, UniProt P00533, DEL746-750/L718Q). Conditions: read-out: IC50 Values; Ba/F3 cells expressing EGFR Ex19del L718Q, 72 hours.
For a further test, the target named is EGFR D770insNPG (Homo sapiens, UniProt P00533, INS770NPG). The following applies: read-out: IC50 Values; Ba/F3 cells expressing EGFR D770insNPG, 72 hours.
A further test has as its target EGFR L858R T790M L792H (Homo sapiens, UniProt P00533, L792H/L858R/T790M). The following applies: read-out: IC50 Values; Ba/F3 cells expressing EGFR L858R T790M L792H, 72 hours.

EGFR R776H, sequence (P00533 25-1210 R776H): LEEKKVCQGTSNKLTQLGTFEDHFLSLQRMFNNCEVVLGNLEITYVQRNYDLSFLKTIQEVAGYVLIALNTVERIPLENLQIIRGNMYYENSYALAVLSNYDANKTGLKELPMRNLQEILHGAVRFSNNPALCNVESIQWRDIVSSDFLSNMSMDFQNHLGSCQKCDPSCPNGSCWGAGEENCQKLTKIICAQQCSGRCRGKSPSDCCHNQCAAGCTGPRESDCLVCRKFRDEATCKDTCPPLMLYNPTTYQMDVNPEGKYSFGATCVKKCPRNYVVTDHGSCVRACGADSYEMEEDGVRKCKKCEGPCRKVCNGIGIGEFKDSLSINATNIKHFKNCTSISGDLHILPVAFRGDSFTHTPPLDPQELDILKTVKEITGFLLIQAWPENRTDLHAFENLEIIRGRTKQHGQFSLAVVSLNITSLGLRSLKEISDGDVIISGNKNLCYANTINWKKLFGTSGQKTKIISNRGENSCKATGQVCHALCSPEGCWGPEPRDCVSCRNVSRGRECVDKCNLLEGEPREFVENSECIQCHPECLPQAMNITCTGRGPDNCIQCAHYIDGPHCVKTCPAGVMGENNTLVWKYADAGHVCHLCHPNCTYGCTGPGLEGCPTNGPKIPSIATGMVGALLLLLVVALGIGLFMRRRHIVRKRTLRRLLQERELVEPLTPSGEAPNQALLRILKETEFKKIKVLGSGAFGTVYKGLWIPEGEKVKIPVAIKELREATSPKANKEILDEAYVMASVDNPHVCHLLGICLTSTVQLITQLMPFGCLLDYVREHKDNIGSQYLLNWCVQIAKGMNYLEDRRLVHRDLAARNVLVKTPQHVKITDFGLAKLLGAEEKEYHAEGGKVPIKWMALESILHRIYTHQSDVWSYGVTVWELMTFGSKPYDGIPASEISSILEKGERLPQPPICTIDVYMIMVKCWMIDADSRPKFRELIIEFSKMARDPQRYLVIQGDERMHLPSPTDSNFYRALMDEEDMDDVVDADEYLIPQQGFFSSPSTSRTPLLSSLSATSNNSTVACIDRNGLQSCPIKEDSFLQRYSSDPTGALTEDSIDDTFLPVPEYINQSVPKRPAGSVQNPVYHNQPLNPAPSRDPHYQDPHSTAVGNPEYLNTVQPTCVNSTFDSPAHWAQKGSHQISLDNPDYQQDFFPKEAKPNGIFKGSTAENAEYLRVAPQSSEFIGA
EGFR L858R T790M L792H, sequence (P00533 25-1210 T790M/L792H/L858R): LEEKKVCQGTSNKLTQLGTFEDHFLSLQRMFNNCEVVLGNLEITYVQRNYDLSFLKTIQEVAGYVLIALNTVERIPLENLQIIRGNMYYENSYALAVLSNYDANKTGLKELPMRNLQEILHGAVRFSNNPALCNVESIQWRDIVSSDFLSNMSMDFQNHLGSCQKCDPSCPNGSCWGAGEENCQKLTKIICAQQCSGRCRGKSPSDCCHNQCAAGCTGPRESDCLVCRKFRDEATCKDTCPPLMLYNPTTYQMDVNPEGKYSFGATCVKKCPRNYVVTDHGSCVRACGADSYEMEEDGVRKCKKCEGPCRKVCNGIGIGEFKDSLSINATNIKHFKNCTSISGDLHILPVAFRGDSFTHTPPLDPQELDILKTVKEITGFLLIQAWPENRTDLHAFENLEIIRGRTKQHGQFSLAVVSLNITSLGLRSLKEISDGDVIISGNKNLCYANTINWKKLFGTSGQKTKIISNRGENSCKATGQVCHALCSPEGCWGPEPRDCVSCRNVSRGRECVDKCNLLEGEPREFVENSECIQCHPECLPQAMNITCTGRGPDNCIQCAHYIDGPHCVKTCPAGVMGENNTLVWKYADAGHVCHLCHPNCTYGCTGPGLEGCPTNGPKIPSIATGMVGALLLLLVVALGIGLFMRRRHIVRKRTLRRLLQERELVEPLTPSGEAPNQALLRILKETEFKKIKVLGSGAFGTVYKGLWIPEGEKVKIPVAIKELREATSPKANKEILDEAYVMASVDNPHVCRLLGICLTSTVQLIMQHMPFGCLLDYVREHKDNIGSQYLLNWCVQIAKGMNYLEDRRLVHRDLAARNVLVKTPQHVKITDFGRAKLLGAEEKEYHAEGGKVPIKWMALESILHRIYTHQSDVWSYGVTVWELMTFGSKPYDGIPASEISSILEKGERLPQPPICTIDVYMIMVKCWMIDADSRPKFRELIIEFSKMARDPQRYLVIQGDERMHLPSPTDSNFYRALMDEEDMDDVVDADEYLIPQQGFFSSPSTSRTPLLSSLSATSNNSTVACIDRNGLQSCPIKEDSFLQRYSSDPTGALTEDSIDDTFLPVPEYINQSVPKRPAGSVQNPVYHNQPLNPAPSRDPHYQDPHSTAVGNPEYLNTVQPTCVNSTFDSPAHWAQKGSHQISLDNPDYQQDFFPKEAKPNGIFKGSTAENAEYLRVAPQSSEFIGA
EGFR L858R T790M V843I, sequence (P00533 25-1210 T790M/V843I/L858R): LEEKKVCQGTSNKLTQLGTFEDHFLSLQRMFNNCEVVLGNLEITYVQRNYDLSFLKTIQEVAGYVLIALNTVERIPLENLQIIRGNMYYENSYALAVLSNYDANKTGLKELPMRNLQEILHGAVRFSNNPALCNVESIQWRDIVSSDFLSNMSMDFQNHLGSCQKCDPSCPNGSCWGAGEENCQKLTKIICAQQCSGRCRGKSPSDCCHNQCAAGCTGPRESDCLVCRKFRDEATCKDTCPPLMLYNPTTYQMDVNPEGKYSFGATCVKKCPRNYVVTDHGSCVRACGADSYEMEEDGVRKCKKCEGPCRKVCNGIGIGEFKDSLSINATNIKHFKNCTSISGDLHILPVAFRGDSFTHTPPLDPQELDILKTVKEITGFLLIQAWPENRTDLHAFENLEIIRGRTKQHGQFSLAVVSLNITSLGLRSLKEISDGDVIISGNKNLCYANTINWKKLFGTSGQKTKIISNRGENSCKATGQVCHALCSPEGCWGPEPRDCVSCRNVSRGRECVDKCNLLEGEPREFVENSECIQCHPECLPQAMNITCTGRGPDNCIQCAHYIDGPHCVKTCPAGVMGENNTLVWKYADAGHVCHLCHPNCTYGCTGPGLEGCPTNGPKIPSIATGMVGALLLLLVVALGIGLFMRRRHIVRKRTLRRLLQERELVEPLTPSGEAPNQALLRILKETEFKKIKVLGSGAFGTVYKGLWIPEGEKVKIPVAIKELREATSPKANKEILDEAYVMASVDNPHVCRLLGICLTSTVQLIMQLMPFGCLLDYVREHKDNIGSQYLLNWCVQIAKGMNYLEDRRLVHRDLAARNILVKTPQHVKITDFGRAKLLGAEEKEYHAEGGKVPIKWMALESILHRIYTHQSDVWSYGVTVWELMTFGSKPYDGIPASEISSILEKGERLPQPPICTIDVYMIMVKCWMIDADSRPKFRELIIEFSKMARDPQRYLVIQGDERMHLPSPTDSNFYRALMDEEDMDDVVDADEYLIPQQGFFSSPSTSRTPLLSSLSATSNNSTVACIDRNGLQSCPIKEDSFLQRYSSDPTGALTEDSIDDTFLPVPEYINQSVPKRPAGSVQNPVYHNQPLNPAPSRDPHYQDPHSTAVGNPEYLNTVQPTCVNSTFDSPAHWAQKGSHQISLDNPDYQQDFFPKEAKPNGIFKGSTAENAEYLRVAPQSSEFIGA
EGFR L858R/T790M, sequence (P00533 25-1210 T790M/L858R): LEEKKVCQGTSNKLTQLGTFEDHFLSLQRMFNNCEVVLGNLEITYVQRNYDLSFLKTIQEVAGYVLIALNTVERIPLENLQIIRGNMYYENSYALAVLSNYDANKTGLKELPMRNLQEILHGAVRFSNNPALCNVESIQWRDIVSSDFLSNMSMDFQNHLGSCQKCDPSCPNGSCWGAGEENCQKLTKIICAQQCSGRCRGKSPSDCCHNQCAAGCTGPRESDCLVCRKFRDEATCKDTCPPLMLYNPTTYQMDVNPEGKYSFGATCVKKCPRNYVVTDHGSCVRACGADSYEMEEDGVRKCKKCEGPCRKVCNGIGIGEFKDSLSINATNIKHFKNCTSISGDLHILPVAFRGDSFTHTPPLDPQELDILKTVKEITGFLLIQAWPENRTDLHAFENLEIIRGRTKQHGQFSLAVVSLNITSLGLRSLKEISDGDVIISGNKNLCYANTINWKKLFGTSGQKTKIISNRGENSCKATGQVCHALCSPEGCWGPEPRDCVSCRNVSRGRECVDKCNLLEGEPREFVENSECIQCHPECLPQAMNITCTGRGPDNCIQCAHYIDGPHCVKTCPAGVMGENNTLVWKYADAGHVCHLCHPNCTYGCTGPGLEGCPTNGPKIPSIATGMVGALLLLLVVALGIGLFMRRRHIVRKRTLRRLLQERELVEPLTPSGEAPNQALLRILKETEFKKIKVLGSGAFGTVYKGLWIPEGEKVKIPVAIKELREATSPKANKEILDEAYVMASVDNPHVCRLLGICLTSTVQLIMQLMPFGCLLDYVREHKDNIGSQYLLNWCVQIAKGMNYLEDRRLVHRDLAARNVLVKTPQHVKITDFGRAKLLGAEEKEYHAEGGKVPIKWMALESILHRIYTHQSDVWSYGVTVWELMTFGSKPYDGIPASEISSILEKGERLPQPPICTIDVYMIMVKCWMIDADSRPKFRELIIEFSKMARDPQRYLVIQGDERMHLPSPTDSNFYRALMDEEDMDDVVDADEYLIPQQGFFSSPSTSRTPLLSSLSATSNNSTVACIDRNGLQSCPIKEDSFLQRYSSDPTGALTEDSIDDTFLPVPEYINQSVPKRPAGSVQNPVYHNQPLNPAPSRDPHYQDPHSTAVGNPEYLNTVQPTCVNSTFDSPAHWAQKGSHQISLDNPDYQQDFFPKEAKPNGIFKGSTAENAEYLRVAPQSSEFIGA

With `C=CC(=O)N1CC[C@@H](Oc2nc(Nc3ccc(N4CCC(N5CCN(C)CC5)CC4)cc3)c(C(N)=O)nc2CC)C1` [Naquotinib], the IC50 (in general, the concentration that gives 50% inhibition) was found to be 575 nM at EGFR R776C; 153 nM on EGFR S768dupSVD; 68.6 nM at EGFR R776H; 4350 nM at EGFR L858R T790M/C797S; 472 nM on EGFR L747P; 503 nM at EGFR S768I. Further, the IC50 on EGFR S768I/V769L was 234 nM; at EGFR T790M, 54.4 nM; at EGFR E709K L858R it was 11 nM; on EGFR Ex19del G724S it was 697 nM; at EGFR Ex19del/T790M/L792H, 4.75 nM; on EGFR L858R/T790M it was 1.88 nM. Also, the IC50 came out at 18.8 nM on EGFR L858R/L718V; 13.9 nM at EGFR Ex19del L718V; 122 nM at EGFR K757R; 112 nM on EGFR Ex19delT854l; 2.05 nM on EGFR L858R T790M V843I; 2.64 nM on EGFR Ex19del L718Q. In addition, the IC50 at EGFR D770insNPG amounted to 175 nM; on EGFR L858R T790M L792H it was 624 nM.
